Assay results reported in publication PMC4210890, “Suvanine Sesterterpenes from a Tropical Sponge Coscinoderma sp. Inhibit Isocitrate Lyase in the Glyoxylate Cycle” (Marine Drugs, 2014).
≈ marks a conversion by molar mass, not a printed value. Where “and” joins values, the source holds several entries; their conditions need not be identical. Equal values may be shown once. Read-outs that look alike come from different tables or passages of the source.

Assays:
C. albicans SC5314 = test: In vitro growth assay (MIC) in YNB broth with glucose or acetate; assay type: cell-based, Candida albicans; details: 3 days at 28 °C; for MIC: Candida albicans, 72 h
Method: The microbial strategy for survival during growth in a nutrient-free environment entails a metabolic shift in the carbon source to C2 substrates generated by β-oxidation of fatty acids. […] To investigate whether ICL inhibitors affected C2 substrate use, we cultured C. albicans strain SC5314 in YNB broth containing either 2% glucose or 2% potassium acetate as the sole carbon source, and inhibition was evaluated based on the MIC.
C. albicans strains were grown in YNB ([…] yeast nitrogen base) broth containing 2% glucose at 28 °C for 24 h, harvested by centrifugation, and washed twice with sterile distilled water. Each test compound was dissolved in DMSO and diluted with YNB containing 2% glucose or 2% potassium acetate to prepare serial twofold dilutions in the range 100–0.1 μg/mL. The final DMSO concentration was maintained at 0.5% by adding DMSO to the medium. Twenty microliters of the broth containing test fungus was added to each well of a 96-well microtiter plate (final concentration of 1 × 10^4 cells/mL). Culture plates were incubated for 3 days at 28 °C. […] Amphotericin B was used as a reference compound.

[1] = biological target: T1, recombinant ICL from C. albicans ATCC 10231 (Candida albicans, UniProt Q9P8Q7); test: biochemical
T1 construct: thioredoxin (fusion partner of the pBAD/Thio-TOPO vector); made in house; host or cells: Escherichia coli TOP10
Method: Compound 1−9 were obtained as mentioned previously (Figure 1). The expression and purification of recombinant ICL from the genomic DNA of C. albicans (ATCC 10231) were carried out by a method described previously. The inhibitory effects of the isolated compounds on ICL were evaluated according to a procedure documented previously. The basic concept of this method was to measure spectrophotometrically the formation of glyoxylate phenylhydrazone in the presence of phenylhydrazine and isocitrate. The effect of the inhibitor on ICL was calculated as a percentage relative to dimethyl sulfoxide (DMSO)-treated control. Mixture of ICL, substrate, phenyhydrazine was incubated for 30 min with various concentrations of suvanine sesterterpenes (100 to 0.1 μg/mL). The formation of glyoxylate phenylhydrazone was followed spectrophotometrically at 324 nm. Data were scaled to internal controls, and a four- parameter logistic model (GraphPad ver. 5.0, Prism) was used to fit the measured data and determine IC50 (inhibitory concentration for 50% activity) values.
The preparation of recombinant ICL protein from the genomic DNA of C. albicans ATCC 10231 was carried out using a method described previously. Briefly, ICL was PCR-amplified using two synthetic primers: 5′-[…]-3′ (forward) and 5′-[…]-3′ (reverse). The PCR product was cloned into the pBAD/Thio-TOPO vector (Invitrogen, Carlsbad, CA, USA) and transformed into Escherichia coli TOP10 (Invitrogen).
The effect of isolated compounds on ICL was evaluated according to a procedure documented previously. A 1-mL aliquot of the reaction mixture contained 20 mM sodium phosphate buffer (pH 7.0), 1.27 mM threo-DL (+) isocitrate, 3.75 mM MgCl2, 4.1 mM phenylhydrazine and 2.5 μg/mL purified ICL. The reaction was performed at 37 °C for 30 min with and without a prescribed concentration of the inhibitor dissolved in DMSO (final concentration, 0.5%). The formation of glyoxylate phenylhydrazone was followed spectrophotometrically at 324 nm. The effect of the inhibitor on ICL was calculated as a percentage relative to the solvent-treated control. A 12-point, twofold serial dilution dose–response assay was performed in triplicate. The resultant dose–response concentration range was 100 to 0.1 μg/mL of inhibitor in a 1-mL final reaction volume. Data were scaled to internal controls, and a four-parameter logistic model (GraphPad ver. 5.0, Prism) was used to fit the measured data and determine the IC50 values. The ICL inhibitor 3-nitropropionate was used as a positive control. Protein concentration was determined by the method of Bradford using the Bio-Rad protein assay kit (Bio-Rad, Hercules, CA, USA) and bovine serum albumin as a standard.

ICL from C. albicans = ICL from C. albicans (Candida albicans, UniProt Q9P8Q7); test: biochemical; assay type: biochemical; details: for type of inhibition: Lineweaver and Burk plot at IC50 or twofold IC50; for reversibility of binding to enzyme: enzyme activity recovered by dialysis within 2 h
Method: To determine the type of inhibition, kinetic studies were performed with compounds 1, 2 and 4 at IC50 or twofold IC50 based on Lineweaver and Burk plot (Figure 3). Inhibitor constants were obtained by Dixon plot.
Figure 3 Lineweaver-Burk plot of ICL inhibition by compounds 1, 2 and 4. [S], substrate concentration [mM]; V, reaction velocity (∆absorbance unit/min). Each data point represents the mean of three experiments.

[2] = test system: C. albicans strain SC5314 (wild-type), MRC10 (Δicl), and MRC11 (Δicl + ICL); test: Growth phenotype of wild-type and ICL deletion mutants on YNB agar plates; assay type: cell-based, Candida albicans; details: 12.5 μg/mL, 3 days at 28 °C
[3] = test system: ICL mRNA expression in C. albicans; test: Semi-quantitative RT-PCR analysis of ICL mRNA expression; assay type: cell-based, Candida albicans; details: acetate medium
[4] = YNB broth with 2% glucose, read-out: MIC, Glucose
[5] = YNB broth with 2% potassium acetate, read-out: MIC, Acetate
[6] = YNB broth with 2% potassium acetate
[7] = recombinant ICL from C. albicans ATCC 10231, 37 °C, 30 min, mean ± SD (n = 3), read-out: ICL IC50
[8] = recombinant ICL from C. albicans ATCC 10231, value in parentheses
[9] = recombinant ICL from C. albicans ATCC 10231, value in parentheses, read-out: ICL IC50

Chain of ICL from C. albicans (Q9P8Q7 whole entry): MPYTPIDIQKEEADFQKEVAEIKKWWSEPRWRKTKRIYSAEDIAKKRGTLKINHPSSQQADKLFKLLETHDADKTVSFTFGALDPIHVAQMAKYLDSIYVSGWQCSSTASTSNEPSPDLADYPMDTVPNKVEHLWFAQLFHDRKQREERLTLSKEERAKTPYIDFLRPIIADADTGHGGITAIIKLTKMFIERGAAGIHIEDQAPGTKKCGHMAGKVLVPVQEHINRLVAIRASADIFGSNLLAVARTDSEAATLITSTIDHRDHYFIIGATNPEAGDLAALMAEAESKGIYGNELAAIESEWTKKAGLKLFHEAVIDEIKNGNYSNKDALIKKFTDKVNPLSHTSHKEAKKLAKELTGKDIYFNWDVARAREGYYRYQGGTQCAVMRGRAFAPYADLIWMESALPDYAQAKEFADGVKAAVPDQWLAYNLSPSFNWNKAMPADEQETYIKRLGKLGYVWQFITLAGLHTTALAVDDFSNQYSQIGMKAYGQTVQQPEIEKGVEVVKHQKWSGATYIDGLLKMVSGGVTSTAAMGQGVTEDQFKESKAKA
T1 sequence (Q9P8Q7 whole entry, the tested form may be a part): as the sequence (Q9P8Q7 whole entry) above

SMILES | MIC (C. albicans SC5314; [4]) [µg/mL] | MIC (C. albicans SC5314; [5]) [µg/mL] | IC50 ([1]; ICL IC50) | IC50 [1, 7] [µM] | other results
C[C@@H]1[C@H](O)[C@@H](C)/C=C/C=C/C=C/C=C/C=C/C=C/C=C/[C@H](O[C@@H]2O[C@H](C)[C@@H](O)[C@H](N)[C@@H]2O)C[C@@H]2O[C@](O)(C[C@@H](O)C[C@@H](O)[C@H](O)CC[C@@H](O)C[C@@H](O)CC(=O)O[C@H]1C)C[C@H](O)[C@H]2C(=O)O [Amph B, Amphotericin B, reference compound] | 1.56 (≈ 1.69 µM) | 0.39 (≈ 0.422 µM) | – | – | –
CC1(C)CCC[C@]2(C)[C@H]3CC/C(=C\OS(=O)(=O)[O-])[C@H](CCc4ccoc4)[C@@]3(C)CC[C@@H]12.C[N+](C)=C(N)N [Compound 1, suvanine salt] | – | – | – | – | ICL IC50 [1]: 22.43 ± 1.49 (12.03 ± 0.80) µg/mL; IC50 ([1]; read-out: ICL IC50): 22.4 µM; MIC, Glucose (C. albicans SC5314; YNB broth with 2% glucose): 100 µg/mL; MIC, Acetate (C. albicans SC5314; [6]): 25 µg/mL; type of inhibition (ICL from C. albicans): uncompetitive inhibitor; reversibility of binding to enzyme (ICL from C. albicans): reversible; Ki (ICL from C. albicans; obtained by Dixon plot, read-out: Ki (inhibitor constant)): 17.4 µM
CC1(C)CCC[C@]2(C)[C@H]3CC/C(=C\OS(=O)(=O)[O-])[C@H](CCc4ccoc4)[C@@]3(C)CC[C@@H]12.[Na+] [Compound 2, suvanine salt] | 100 | 12.5 | 6.35 µM | – | growth on YNB agar plates containing glucose plus compound ([2]; SC5314, MRC10, MRC11, 2% glucose): grew normally; growth on YNB agar plates containing acetate plus compound ([2]; all tested strains, 2% sodium acetate): inhibited markedly; MIC, Acetate (C. albicans SC5314; [6]): 12.5 µg/mL; Ki (ICL from C. albicans): 14.4 µM; type of inhibition (ICL from C. albicans): mixed noncompetitive inhibitors; reversibility of binding to enzyme (ICL from C. albicans): reversible; reduction of ICL mRNA expression ([3]; 12.5 μg/mL, 4 h at 28 °C, densitometric analysis): seventeenfold; ICL transcript levels with increasing compound concentration ([3]; SC5314 and MRC11, 6.25 and 12.5 µg/mL): diminished with increasing compound 2 concentrations
O=C(O)CC[N+](=O)[O-] [Compound 3-NP, 3-Nitropropinate, reference compound] | – | – | – | 17.3 ± 1.04 | ICL IC50 [1, 8]: 2.06 ± 0.12 µg/mL; MIC, Glucose (C. albicans SC5314; YNB broth with 2% glucose): >100 µg/mL; MIC, Acetate (C. albicans SC5314; [6]): >100 µg/mL
CC1(C)CCC[C@]2(C)[C@H]3CC/C(=C\OS(=O)(=O)[O-])[C@H](CCC4=CC(=O)O[C@@H]4O)[C@@]3(C)CC[C@@H]12.[Na+] [Compound 3] | > 100 | > 100 | – | 56.2 ± 7.1 | ICL IC50 [1, 8]: 28.33 ± 3.58 µg/mL
CC1(C)CCC[C@]2(C)[C@H]3CC/C(=C\OS(=O)(=O)[O-])[C@H](CCC4=CC(=O)OC4)[C@@]3(C)CC[C@@H]12.[Na+] [Compound 4] | > 100 | 100 | 26.3 µM and 26.2 µM | – | Ki (ICL from C. albicans): 62.6 µM; type of inhibition (ICL from C. albicans): mixed noncompetitive inhibitors; reversibility of binding to enzyme (ICL from C. albicans): reversible
CO[C@@H]1C=C(CC[C@H]2/C(=C/OS(=O)(=O)[O-])CC[C@H]3[C@]2(C)CC[C@H]2C(C)(C)CCC[C@]32C)C(=O)O1.[Na+] [Compound 5] | > 100 | > 100 | – | 50.2 ± 6.27 | IC50 [1, 9]: 50.2 ± 3.25 µM
CO[C@H]1C=C(CC[C@H]2/C(=C/OS(=O)(=O)[O-])CC[C@H]3[C@]2(C)CC[C@H]2C(C)(C)CCC[C@]32C)C(=O)O1.[Na+] [Compound 6] | > 100 | 100 | – | 96.2 ± 1.54 | IC50 [1, 9]: 96.08 ± 0.799 µM
CO[C@H]1C=C(CC[C@H]2/C(=C/OS(=O)(=O)[O-])CC[C@H]3[C@]2(C)CC[C@H]2C(C)(C)CCC[C@]32C)[C@@H](OC)O1.[Na+] [Compound 7] | > 100 | > 100 | 59.1 µM and 51.1 µM | – | –
CO[C@@H]1O[C@H](OC)[C@](O)(CC[C@H]2/C(=C/OS(=O)(=O)O)CC[C@H]3[C@]2(C)CC[C@H]2C(C)(C)CCC[C@]32C)[C@H]1O [Compound 8] | > 100 | > 100 | 67.6 µM | – | –
CC1(C)CCC[C@]2(C)[C@H]3CC/C(=C\OS(=O)(=O)[O-])[C@H](CCC4=CCNC4=O)[C@@]3(C)CC[C@@H]12.[Na+] [Compound 9] | > 100 | > 100 | – | 59.2 ± 1.11 | IC50 [1, 9]: 59.1 ± 0.54 µM
C=C(CC(=O)O)C(=O)O [Itaconate, itaconate, reference compound] | > 100 | > 100 | – | – | –
